The text below walks through data of PMC11363325, “A Novel Prodrug Strategy Based on Reversibly Degradable Guanidine Imides for High Oral Bioavailability and Prolonged Pharmacokinetics of Broad-Spectrum Anti-influenza Agents” (ACS Central Science, 2024).

Like-named read-outs stand apart in the source and are kept apart here.

The subject of data set [1] is A/Puerto Rico/8/1934 (PR8; H1N1). As to the kind of experiment: microbe, parasite or virus in culture. The settings on record: Influenza A virus, MDCK.
Another data set relates to B/Lee/1940 (Lee). As to the kind of experiment: microbe, parasite or virus in culture. The settings on record: Influenza B virus, MDCK.
Data set [2] relates to A/Hong Kong/8/1968 (HK; H3N2). As to the kind of experiment: microbe, parasite or virus in culture. The settings on record: Influenza A virus, H3N2, MDCK.
Data set [3] can be described thus: in vitro.
The nature of data set [4]: physchem. The format is physicochemical.
The nature of data set [5]: In vitro microsomal stability. The class given is in vitro ADME, rat. As to the method:
In vitro microsomal stability
Sprague Dawley rat microsomes were obtained from GibcoTM. NADPH was purchased from Sigma-Aldrich (Munich, Germany). Liver microsomes at 0.5 mg/mL concentration (final volume of 200 μL) were incubated in phosphate buffer (pH 7.4), containing 3 mM MgCl2. OSC-GCDI prodrug was dissolved in DMSO to be 40 mM concentration, then each prodrug solution was mixed with prepared buffer to achieve a final concentration of 100 μM (0.25% DMSO). Test compounds were incubated at 37 °C and started by the addition of the 1mM NADPH as cofactor. The samples were taken at 0, 30, 60, and 90 min. The reaction was terminated by addition of ice-cold acetonitrile/methanol (1:1, v/v). After collection, samples were centrifuged (10 min, 16,000 rpm), then the centrifuged supernatant was directly analyzed by using HPLC analysis. Metabolic half-time (t1/2) was calculated by using the equation of first order

Data set [6] in a line: physchem. The class given is physicochemical. The note with it: pH 7.4.
For data set [7] the following is noted: cited from earlier work.
Data set [8] can be described thus: in vitro. The class given is in vitro ADME. The note with it: PAMPA. As to the method: To assess this hypothesis, we conducted the parallel artificial membrane permeability assay (PAMPA) for simulating passive transcellular permeation.[41]
Supplemental Experimental Procedures
In vitro Parallel Artificial Membrane Permeability Assay (PAMPA) […]
evaluated using Parallel Artificial Membrane Permeability Assay Kit (PAMPA-096). Each prodrug and the supplied permeability controls were dissolved in DMSO at the concentration of 10 mM. Then 25 μL of each prodrug solution was mixed with 475 μL of 50 mM sodium phosphate buffer (pH 6.5) to be used as the test solution. GOC/HPMCP and OSC-GCDI/HPCMP particles are dissolved in 50 mM sodium phosphate buffer (5% DMSO, pH 6.5) to achieve a final concentration of 200 µM. In the acceptor plate, 300 μL of 50 mM sodium phosphate buffer (pH 7.4) was added. Subsequently, before adding 200 μL of each test solution to the donor plate, 5 μL of 4% lecithin in dodecane was directly applied to the well membrane of the donor plate. Donor plate was carefully placed into acceptor plate and incubate at r.t. for 16 – 24 h. Donor plate was removed and each solution was collected and filtered by a PVDF filter (0.20 μm pore size). The total prodrug concentration in each plate was determined by HPLC analysis.
In the case of OSC-GCDI(P), partial degradation occurred due to the instability of OSC-GCDI(P) in the buffer. Therefore, the collected solution was further incubated in a 1 M KOH solution for complete hydrolysis. Then, the concentration of GOC was quantified instead.
(In general: The PAMPA barrier holds no transporters, so it reflects passive diffusion.)

Data set [9] can be described thus: Stability of OSC-GCDIs and GOC release in BALB/c serum. The class given is in vitro ADME. The note with it: mouse. As to the method: (§1) Stability of OSC-GCDIs in serum
Stability of the GCDI prodrugs were examined by incubating prodrugs in human and BALB/c serum at 37 °C and 200 μM final concentration. Briefly, each prodrug was dissolved in DMSO to be 20 mM concentration, then 10 μL of each prodrug solution was mixed with 990 μL of serum. At different time intervals, 100 μL of the samples were taken and mixed with 100 μL of MeCN. Samples were centrifuged at 14,000 rpm for 10 min at 4 °C and the supernatant was immediately frozen (−80 °C). After thawing and shaking, the samples were filtered using a polytetrafluoroethylene (PTFE) filter (0.20 μm pore size) […]
Release profiles of GOC from the OSC -GCDI prodrugs conjugated to human serum albumin OSC-GCDIs were dissolved in Dulbecco ’s Phosphate-Buffered Saline (DPBS) containing HSA (20 mg/mL) to be concentration of 1 mM, then the mixture was shaken for 10 min at 37 °C. Unbound OSC-GCDIs were removed by washing twice with DPBS using Vivaspin 500 ultrafiltration units (10 kDa cutoff).
Following centrifugation, the samples were redissolved in 1 mL DPBS. Before incubation at 37 °C, 50 µL sample was taken and mixed with 50 µL of 1 M KOH in m ethanol solution to completely hydrolyze the conjugates and determine the initial drug concentration bound to HSA. Subsequently, the samples were incubated at 37 °C and after 1, 2, 4, 24, and 72 h incubation, 50 µL of the samples were taken and mixed with 50 µL MeCN. Then, the concentration of the released GOC was quantified by HPLC. […]

Data set [10] is described as follows: Stability of OSC-GCDIs in human serum. The format is in vitro ADME. The note with it: 200 μM prodrug, 37 °C. As for the experimental part:
as §1
Stability of the GCDI prodrugs were examined by incubating prodrugs in human and BALB/c serum at 37 °C and 200 μM final concentration. Briefly, each prodrug was dissolved in DMSO to be 20 mM concentration, then 10 μL of each prodrug solution was mixed with 990 μL of serum. At different time intervals, 100 μL of the samples were taken and mixed with 100 μL of MeCN. Samples were centrifuged at 14,000 rpm for 10 min at 4 °C and the supernatant was immediately frozen (−80 °C). After thawing

Data set [11] is described as follows: Stability of OSC-GCDIs in phosphate buffers. The format is physicochemical.
For data set [12] the following is noted: authors' response to reviewers, no reference given; cited from earlier work.
Details of data set [13]: method as in Buss, J. L.; Hasinoff, B. B. J. Mol. Model. 2001, 7, 438–444. The settings on record: amine-based imides; ref Buss, J. L.; Hasinoff, B. B. J. Mol. Model. 2001, 7, 438–444; cited from earlier work.
[14] abbreviates: BALB/c serum, 200 μM prodrug, 37 °C, read-out: T1/2.
Setting [15] is: sodium phosphate buffer, pH 2, phosphate buffer pH 2.0, 37 °C, read-out: T1/2.
Where [16] appears, read: sodium phosphate buffer, pH 6.5, phosphate buffer pH 6.5, 37 °C, read-out: T1/2.
Where [17] appears, read: sodium phosphate buffer, pH 7.4, phosphate buffer pH 7.4, 37 °C, read-out: T1/2.
Where [18] appears, read: sodium phosphate buffer, pH 8, phosphate buffer pH 8.0, 37 °C, read-out: T1/2.

With `NC12CC3CC(CC(C3)C1)C2` [AMT, Amantadine, reference compound], the results for the half-maximal effective concentration (EC50) (in data set [1]; in the data set with B/Lee/1940 (Lee); in data set [2]) were above 100000 nM, above 100000 nM and 1560 ± 400 nM, respectively. The CC50 at 3 days in the data set “in vitro [3]” is above 100000 nM.

On to `CCC(CC)O[C@@H]1C=C(C(=O)O)C[C@H](NC(=N)N)[C@H]1NC(C)=O` [GOC, guanidino oseltamivir carboxylate, reference compound], for which the EC50 in data set [1] was 5 ± 1 nM; in the data set with B/Lee/1940 (Lee), 700 ± 150 nM; in data set [2], below 5 nM. In addition, the CC50 in the data set “in vitro [3]” (dog) is above 100000 nM. For the same compound, the logP in the data set “physchem [4]” (octanol–water, room temperature, read-out: log P) is -1.35. In data set [5] (Sprague Dawley, microsomes, pH 7.4, rat liver microsome, 100 μM, 37 °C), this compound came in with a half-life of 116 h. Besides, the “remaining GOC” value in [5] (rat liver microsomes, after 90-min incubation) worked out at 98.8%. For the same compound, the logD in “physchem [6]” (octanol-phosphate buffer, read-out: log D7.4) was -1.49. In [7] (in vivo, po), the oral bioavailability is below 4%. Besides, the “Effective permeability Pe” value in the data set “in vitro [8]” was “almost negligible”.

In the data set “physchem [4]”, `CCOC(=O)C1=C[C@@H](OC(CC)CC)[C@H](NC(C)=O)[C@@H](N)C1` [OS-P, Oseltamivir phosphate, reference compound] showed a logP of 0.22. This compound registered a logD in the data set “physchem [6]” of -0.42. The oral bioavailability in data set [7] (authors' response to reviewers, no reference given) was 80%; in data set [7] (in vivo, po), above 80%. In addition, in data set [7] (in vivo), the half-life result is “less than 1 day”. The compound further returned a Papp at 500 μM in the data set “in vitro [8]” of 2.27 ×10⁻⁶ cm/s.

For `CCC(CC)O[C@@H]1C=C(C(=O)O)C[C@H](N)[C@H]1NC(C)=O` [OSC, oseltamivir carboxylate, reference compound], the concentration for a half-maximal effect (EC50) in [1] is 100 ± 10 nM; in the data set with B/Lee/1940 (Lee), 1290 ± 250 nM; in [2], below 5 nM. The compound further showed a CC50 at 3 days in “in vitro [3]” (dog) above 100000 nM.

Consider `CCCCC1CC(=O)N(C(=N[C@H]2CC(C(=O)O)=C[C@@H](OC(CC)CC)[C@@H]2NC(C)=O)N2C(=O)CC(CCCC)C2=O)C1=O` (stereo partly drawn) [OSC-GCDI(B)], for which the half-maximal effective concentration (EC50) in data set [1] is 90 ± 10 nM; in the data set with B/Lee/1940 (Lee), 72400 ± 1350 nM; in [2], 40 ± 10 nM. In addition, the half-life at 200 μM in [9] (setting [14]) came to 0.285 h; in data set [10] it was 0.875 h. Also, the CC50 at 3 days in “in vitro [3]” (dog) is above 100000 nM. For the same compound, the “increase of lipophilicity of GOC via the GCDI modification (based on P)” value in “physchem [4]” was found to be 2082 fold. Also, the logP in the data set “physchem [4]” came out at 1.83. In addition, the logD in the data set “physchem [6]” was 0.91. In addition, the half-life at 100 μM is above 24 h in [11] (setting [15]), above 24 h in data set [11] (setting [16]), 7.7 h in data set [11] (setting [17]) and 2.62 h in data set [11] (setting [18]). The compound also showed a Papp at 500 μM in “in vitro [8]” of 4.5 ×10⁻⁶ cm/s.

As to `CCC(CC)O[C@@H]1C=C(C(=O)O)C[C@H](N=C(N2C(=O)[C@H]3CCCC[C@H]3C2=O)N2C(=O)[C@H]3CCCC[C@H]3C2=O)[C@H]1NC(C)=O` [OSC-GCDI(C)], the figures for the half-maximal effective concentration (EC50) (in data set [1]; with B/Lee/1940 (Lee); in data set [2]) were 10 ± 10 nM, 2210 ± 200 nM and below 5 nM, respectively. The results for the half-life at 200 μM in [9] (setting [14]) and in [10] were 0.397 h and 0.437 h, respectively. In “in vitro [3]” (dog), this compound showed a CC50 at 3 days above 100000 nM. Besides, the logP in the data set “physchem [4]” came out at 1.33. In addition, in the data set “physchem [6]”, the logD is 0.46. Also, the half-life at 100 μM in data set [11] (setting [15]) was above 24 h; in [11] (setting [16]), 10.5 h; in [11] (setting [17]), 1.36 h; in [11] (setting [18]), 0.447 h. The Papp at 500 μM in the data set “in vitro [8]” came out at 2.99 ×10⁻⁶ cm/s.

For the compound `CCC(CC)O[C@@H]1C=C(C(=O)O)C[C@H](N=C(N2C(=O)CC(C)(C)C2=O)N2C(=O)CC(C)(C)C2=O)[C@H]1NC(C)=O` [OSC-GCDI(D)], the EC50 in data set [1] is 70 ± 10 nM; with B/Lee/1940 (Lee), 13700 ± 2850 nM; in data set [2] it was 30 ± 10 nM. Also, the half-life at 200 μM in [9] (BALB/c, serum) was above 1.67 h; in [9] (setting [14]) it was 2.63 h; in data set [10] it was 1.95 h. This compound also yielded a CC50 at 3 days in the data set “in vitro [3]” (dog) above 100000 nM. For the same compound, the logP in “physchem [4]” stood at 0.98. Besides, the half-life at 100 μM in data set [5] (Sprague Dawley, liver microsomes, pH 7.4, rat liver microsome, 100 μM, 37 °C) was 6.42 h; in data set [11] (buffer, pH 7.4, half-life), above 8 h; in data set [11] (setting [15]), above 24 h; in [11] (setting [16]), above 24 h; in data set [11] (setting [17]), 8.25 h; in data set [11] (setting [18]), 2.69 h. Besides, the “CLint (intrinsic clearance)” value in data set [5] (rat, microsomes) worked out at 3.60. For the same compound, in the data set “physchem [6]”, the logD is -0.32. In data set [11] (phosphate buffer pH 7.4, 37 °C), this compound returned a T1/2 of 8.252 h. The compound further had an apparent permeability coefficient (Papp) at 500 μM in “in vitro [8]” of 1.66 ×10⁻⁶ cm/s.

Consider `C=CC(=O)O` [acrylic acid], for which the pKa in data set [12] was 4.3.

As for `O=C1C=CC(=O)N1` [maleimide], the “hydrolysis rate compared to succinimide” value in data set [13] is reported as 300 times faster.

With `O=C1NC(=O)c2ccccc21` [phthalimide], the “hydrolysis rate compared to succinimide” value in data set [13] is listed as 100 times faster.

What is called EC50 is the concentration giving half of the maximal effect. Low values mean a more potent agent, high ones a less potent agent. As a reminder, the Papp is a coefficient for how fast a substance crosses the barrier. The low end stands for poor permeation, the high end for ready permeation. In general, pKa refers to the pH at which an ionisable group is half protonated.
